Each structure is given as a SMILES string. Marks after values point to notes of the source that are not given here.

The test deals with experimental ulcerative colitis. As to the kind of experiment: DSS modeling and treatment of experimental ulcerative colitis in rat. The class given is in vivo, SD rat. The conditions noted are these: SASP 0.02 g/ml i.g., twice a day for 21 days. The method, then:
The producing method of live bacteria preparation of Bacillus coagulans for the treatment of ulcerative colitis comprises following steps: incubating Bacillus coagulans by fermentation; drying bacteria slurry after centrifugation to obtain live bacteria powder, which is then prepared as suitable dosage forms. Ulcerative colitis is characterized in that pathological change mostly occurs at rectum and sigmoid flexure, or throughout the whole colon. A microscopic examination of colon can show mucosal blooding, edema, erosion or superficial ulcertion on affected intestine with mucus and inflammatory exudate covered thereon. Bleeding, inflammatory cell infiltration, epithelial cell decreasing, crypt collapsing and distorting, abscess formation are also often found in microscopic examination. Chronic ulcer may heal to form scar or pseudopolyp. Experimental study is to administrate dextran sodium sulfate (DSS) to SD rat by i.g. and rectal injection to induce experimental ulcerative colitis model, and then subject the modeled rat to experimental treatment with a live bacterial tablet of Bacillus coagulans, whereby the treatment effect of tablet is evaluated. The use is to apply the live bacterial tablet of Bacillus coagulans to clinically treat patients suffering from ulcerative colitis, whereby the efficacy and safety of the live bacterial preparation for UC patients is evaluated.
60 rats were kept under a sterile environment before test. Normal intestinal flora was taken from stools in the rats' anuses and incubated. 10 rats were taken as normal control and other 50 rats as experimental group. According a modified UC rat modeling method (Xiaoping Wu etc., Chinese Journal of Digestion, Vol. 23(5):305, 2003), 3% dextran sodium sulfate (DSS) solution was i.g. administrated to rats with empty stomachs (1 ml/100 g), once a day for 7 days. At the last time, 1 ml/rat of DSS was additionally injected into recta through anuses. After 7 days, stools were taken for flora analysis. 10 rats were then sacrificed and colons were removed by laparocolectomy. The wet weights of colons were measured (g/100 g body weight). The colons was fixed with formaldehyde and stained with alcian blue solution (Sino-American Biotec). The point counts of ulcer and erosion parts were observed by naked eye. Areas (cm^2) of the largest stained blue points were measured with calipers. After the confirmation of UC formation, rats were divided into 4 groups, 10 rats per group. The rats were administrated i.g. with live bacteria tablet of Bacillus coagulans(BC) (10^7 cfU/ml, 10^6 cfU/ml), 0.02 g/ml salicylazosulfapyridine (SASP) and normal saline solution (NS), respectively, twice a day for 21 days, afterwhich the stools were taken for flora analysis. Thereafter, all of the rats were sacrificed. Colon specimens were treated according to above method and corresponding indicators were determined. In addition, intestinal tissue masses were sampled to prepare 5% homogenates, which were determined for their activities of myeloperoxidase (MPO) (U/g·wet slice) with myeloperoxidase test kit (Nanjing JianCheng Bioengineering Institute) by ultraviolet spectrometry (Beijing Technical Application Institute).
The intestinal flora was incubated and analyzed as follows. Fresh stools were extruded out from rats' anuses under sterile condition before or after modeling and after treatment, respectively. […]

For the compound `O=C(O)c1cc(/N=N/c2ccc(S(=O)(=O)Nc3ccccn3)cc2)ccc1O` [SASP, salicylazosulfapyridine], the “Intestinal wet weight (g/100 g body weight)” value was 0.54 ± 0.05**^Δ g/100 g body weight; the “Ulcer or erosion points, Count of Points” value was 2.20 ± 0.79**^ΔΔ; the “Ulcer or erosion points, area (cm^2)” value was 0.22 ± 0.18**^Δ cm^2. The “Body weight (g) After treatment” value (DSS-modeled rats) was determined as 264.00 ± 13.50 g. Also, for the setting “intestinal tissue homogenate”, the “MPO activity (U/g wet weight)” value was 0.20 ± 0.10**^ΔΔ U/g wet weight.

The values are drawn from patent US20060127381A1, “Live bacterial preparation of bacillus coagulans for the treatment of ulcerative colitis, method for producing the same and use thereof” (priority 2004, published 2006).
